In patent US20080249042A1, “All-Trans-Retinol: All-Trans-13,14-Dihydroretinol Saturase and Methods of Its Use” (UNIVERSITY OF WASHINGTON, priority 2004, published 2008):
Like-named read-outs stand apart in the source and are kept apart here.

How the values were obtained:
[1] = Liver retinoids of Lrat-/- mice 3 h after gavage with all-trans-DROL; format: in vivo, mouse; conditions: 3 h post-gavage
Excerpt: (§1) Metabolism of Retinoids in Vivo. All animal experiments employed procedures approved by the University of Washington and conformed to recommendations of the American Veterinary Medical Association Panel on Euthanasia and recommendations of the Association of Research for Vision and Ophthalmology. Animals were maintained on a 12-h light and 12-h dark cycle. All manipulations were done under dim red or infrared light (>560 nm). Most experiments used 6-12-week-old mice. Lrat−/− mice were genotyped as described previously. Batten, et al. J. Biol. Chem. 279:10422-10432, 2004. Animals were maintained on a control chow diet up to 1 h prior to oral gavage. The appropriate amount of all-trans-ROL palmitate, all-trans-DROL, or all-trans-RA was dissolved in vegetable oil and administered by oral gavage 3 h prior to analysis.
(§2) Analysis of Retinoids. Liver (1 g) from retinoid gavaged or naive mice was homogenized in 2 ml of 137 mM NaCl, 2.7 mM KCl, and 10 mM sodium phosphate (pH 7.4) for 30 s using a Polytron homogenizer. 10 μl of 5 M NaOH was added to 3 ml of the ethanolic extract, and the nonpolar retinoids were extracted using 5 ml of hexane. The extraction was repeated, and the organic phases were combined, dried under vacuum, resuspended in hexane, and examined by normal phase HPLC using a normal phase column (Beckman Ultrasphere Si 5μ, 4.6×250 mm). […] The HPLC elution conditions were […], 100% buffer A for 40 min, 100% buffer B for 10 min, and 10 min equilibration in buffer A. The elution profiles of RA and DRA were monitored using an online diode array detector set at 350 and 290 nm, respectively. […] The measured area of absorbance was converted to picomoles based on a calibration of the HPLC columns using a known amount of all-trans-RA or all-trans-ROL (Sigma) and all-trans-DROL or all-trans-DRA (synthetic standards). The extraction efficiency was monitored by spiking a tissue sample with [^3H]RA (PerkinElmer Life Sciences) and monitoring the radioactivity recovered from the HPLC column. […]

[2] = Liver retinoids of Lrat-/- mice 3 h after gavage with all-trans-ROL palmitate; format: in vivo, mouse; conditions: Lrat−/− (LRAT-deficient knockout), mouse, liver, oral, Lrat-/- mice, liver, 3 hr post-gavage, read-out: Level of liver retinoids 3 hr following gavage with ROL palmitate
Excerpt: as §1
Analysis of Retinoids. Liver (1 g) from retinoid gavaged or naive mice was homogenized in 2 ml of 137 mM NaCl, 2.7 mM KCl, and 10 mM sodium phosphate (pH 7.4) for 30 s using a Polytron homogenizer. 10 μl of 5 M NaOH was added to 3 ml of the ethanolic extract, and the nonpolar retinoids were extracted using 5 ml of hexane. The extraction was repeated, and the organic phases were combined, dried under vacuum, resuspended in hexane, and examined by normal phase HPLC using a normal phase column (Beckman Ultrasphere Si 5μ, 4.6×250 mm). The elution condition was an isocratic solvent system of 10% ethyl acetate in hexane (v/v) for 25 min at a flow rate of 1.4 ml/min at 20° C. with detection at 325 and 290 nm for the detection of nonpolar retinoids and 13,14-dihydroretinoids, respectively. The aqueous phase was acidified with 40 μl of 12 N HCl, and polar retinoids were extracted with 5 ml of hexane. The extraction was repeated, and the organic phases of the polar retinoid extractions were combined, dried, resuspended in solvent composed of 80% CH3CN, 10 mM ammonium acetate, 1% acetic acid, and examined by reverse phase HPLC. Analysis of polar retinoids from tissues was done by reverse phase HPLC using a narrowbore, 120-Å, 5-μm, 2.1×250 mm, Denali C18 column (Grace-Vydac, Hesperia, Calif.). The solvent system was composed of buffer A, 80% methanol, 20% 36 mM ammonium acetate (pH 4.7 adjusted with acetic acid), and buffer B, 100% methanol. The HPLC elution conditions were […], 100% buffer A for 40 min, 100% buffer B for 10 min, and 10 min equilibration in buffer A. The elution profiles of RA and DRA were monitored using an online diode array detector set at 350 and 290 nm, respectively. The peaks were identified based on their UV-visible spectra and/or coelution with synthetic or commercially available standards. The measured area of absorbance was converted to picomoles based on a calibration of the HPLC columns using a known amount of all-trans-RA or all-trans-ROL (Sigma) and all-trans-DROL or all-trans-DRA (synthetic standards). The extraction efficiency was monitored by spiking a tissue sample with [^3H]RA (PerkinElmer Life Sciences) and monitoring the radioactivity recovered from the HPLC column. In the case of liver samples the extraction efficiency was 95% or better. Mass spectrometry analyses of synthesized retinoids and of natural retinoids purified by HPLC were performed using a Kratos profile HV-3 direct probe mass spectrometer.

[3] = Liver retinoids of Lrat-/- mice 3 h after gavage with all-trans-RA; format: in vivo, mouse; conditions: 3 h post-gavage
Excerpt: as §1, §2

mouse RetSat [4] = biological target: T1, mouse RetSat (Mus musculus, UniProt Q64FW2); assay: RetSat saturase activity in Tet-induced HEKK-RetSat cells; format: cell-based; conditions: 40 μM substrate, overnight incubation
T1 construct: expressed in transfected cells
T1 sequence (Q64FW2 26-609): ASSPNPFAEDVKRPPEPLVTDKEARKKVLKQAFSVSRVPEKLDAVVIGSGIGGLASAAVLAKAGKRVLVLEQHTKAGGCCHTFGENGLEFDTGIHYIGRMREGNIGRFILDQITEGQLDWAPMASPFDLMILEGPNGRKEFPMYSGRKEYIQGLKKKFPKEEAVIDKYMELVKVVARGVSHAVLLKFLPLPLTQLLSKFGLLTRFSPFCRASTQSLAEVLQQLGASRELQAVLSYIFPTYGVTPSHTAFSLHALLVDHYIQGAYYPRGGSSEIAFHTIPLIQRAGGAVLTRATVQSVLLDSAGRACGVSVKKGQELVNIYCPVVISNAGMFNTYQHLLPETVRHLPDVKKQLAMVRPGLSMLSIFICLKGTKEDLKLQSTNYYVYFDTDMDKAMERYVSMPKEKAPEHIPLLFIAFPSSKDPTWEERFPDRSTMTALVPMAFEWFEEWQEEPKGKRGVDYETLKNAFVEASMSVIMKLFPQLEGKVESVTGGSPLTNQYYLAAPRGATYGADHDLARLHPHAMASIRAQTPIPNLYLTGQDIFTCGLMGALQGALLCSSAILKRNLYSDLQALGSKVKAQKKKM
Procedure: Enzyme assays of RetSat and CRTISO-catalyzed reactions. For enzyme assay, cells were seeded in six-well plates and expression of RetSat or CRTISO was induced with 1 μg/ml tetracycline 48 hr prior to analysis. Substrate preparation and addition were conducted under dim red light. Retinoid substrates were purified by HPLC as described above and dissolved in N,N-dimethylformamide (DMF) to a final concentration of 4 mM. Organic extract of tangerine tomatoes was dried under a stream of argon and resuspended in DMF. The substrates were diluted in 300 μl complete media (tetracycline 1 μg/ml) to a 40 μM final concentration, overlayed on cells, and incubated overnight in the dark at 37° C. in 5% CO2 and 100% humidity. Media and cells were collected by scraping, mixed with an equal volume of methanol. For retinol and dihydroretinol analysis the methanol:water mixture was extracted with two volumes of hexane, then the organic phase was dried, resuspended in hexane, and analyzed by normal-phase HPLC. […] For carotenoid analysis the organic phase was dried and resuspended in ethanol/tetrahydrofuran (9:1) and examined by reverse-phase HPLC System I. For retinoic acid analysis the 1:1 methanol:water mixture was acidified with 0.1 volumes of 12N HCl and extracted with 1 volume of chlorofom, dried and resuspended in ethanol and examined by reverse-phase HPLC System II.

tomato CRTISO = biological target: T2, tomato CRTISO (Solanum lycopersicum, UniProt Q8S4R4); assay: CRTISO activity in transfected HEKK cells; format: cell-based; conditions: CRTISO-expressing cells, overnight, in the dark
T2 construct: expressed in transfected cells
T2 sequence (Q8S4R4 with tags, fused parts or gaps): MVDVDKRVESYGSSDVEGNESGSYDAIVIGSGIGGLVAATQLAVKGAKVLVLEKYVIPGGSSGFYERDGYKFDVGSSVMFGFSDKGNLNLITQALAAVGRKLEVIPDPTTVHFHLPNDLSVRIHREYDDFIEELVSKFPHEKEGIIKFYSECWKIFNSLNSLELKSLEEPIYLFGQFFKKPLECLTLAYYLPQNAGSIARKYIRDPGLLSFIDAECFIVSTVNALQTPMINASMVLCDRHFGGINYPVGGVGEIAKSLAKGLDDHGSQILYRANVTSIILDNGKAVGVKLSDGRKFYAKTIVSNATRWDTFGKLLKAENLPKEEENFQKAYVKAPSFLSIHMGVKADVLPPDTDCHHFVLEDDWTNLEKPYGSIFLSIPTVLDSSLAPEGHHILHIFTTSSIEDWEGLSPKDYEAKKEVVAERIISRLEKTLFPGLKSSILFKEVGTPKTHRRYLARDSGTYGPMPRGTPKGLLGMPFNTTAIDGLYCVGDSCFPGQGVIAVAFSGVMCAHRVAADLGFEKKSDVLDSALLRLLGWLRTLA
Procedure: 7Z,9Z,9′Z,7′Z-Tetra-cis-tycopene purification and reverse-phase HPLC analysis of carotenoids. Carotenoid extraction and analysis were performed under dim red light. One gram from the fruit of a tangerine tomato was freeze-thawed three times and extracted with 2 ml PBS, 2 ml of ethanol, and 6 ml of hexane with the aid of a douncer. The organic phase was dried and resuspended in ethanol/tetrahydrofuran (9:1), and examined by reverse-phase HPLC System I (Prontosil, 200-3-C30, 3 μm, 4.6 mm×250 mm, Bischoff Chromatography, Leonberg, Germany) with a mobile phase of 75% tert-butyl methyl ether/25% methanol and a flow rate of 1 ml/min. More than 90% of the extract consisted of 7Z,9Z,9′Z,7′Z-tetra-cis-lycopene identified based on its published UV/VIS absorption spectrum in hexane with the following characteristics: shoulder at λ=417 nm, ε=90,000 M^−1cm^−1, λmax=437 nm, ε=105,000 M−1 cm^−1, shoulder at λ=461 nm ε=70,000 M^−1cm^−1. Bradford, Anal Biochem 72:248-254, 1976.
Enzyme assays of RetSat and CRTISO-catalyzed reactions. For enzyme assay, cells were seeded in six-well plates and expression of RetSat or CRTISO was induced with 1 μg/ml tetracycline 48 hr prior to analysis. […] For retinol and dihydroretinol analysis the methanol:water mixture was extracted with two volumes of hexane, then the organic phase was dried, resuspended in hexane, and analyzed by normal-phase HPLC. […]

mouse RetSat [5] = biological target: T1, mouse RetSat; conditions: earlier report, Moise et al. 2004; cited from earlier work

CC1=C(/C=C/C(C)=C/C=C/C(C)CO)C(C)(C)CCC1 (single isomer, unassigned) [C19-ROL, (3E,5E,7E)-2,6-dimethyl-8-(2,6,6-trimethylcyclohex-1-enyl)octa-3,5,7-trien-1-ol]
Level in liver after gavage with all-trans-DROL [1]: low levels
concentration at 3 h ([2]; 10^5 IU/kg body weight all-trans-ROL palmitate): 200 ± 8 nM
concentration at 3 h ([2]; 10^6 IU/kg body weight all-trans-ROL palmitate): 1800 nM
Formation in liver after gavage with all-trans-RA [3]: no evidence

CC(C)=CCC/C(C)=C/C=C/C(C)=C/C=C/C(C)=C/C=C/C=C(C)/C=C/C=C(C)/C=C/C=C(\C)CCC=C(C)C [7Z,9Z,9′Z,7′Z-tetra-cis-lycopene]
Saturation by RetSat (substrate activity) (mouse RetSat [4]): no difference
Conversion by CRTISO (substrate activity) (tomato CRTISO): converted

CC1=C(/C=C/C(C)=C\C=C\C(C)=C\C(=O)O)C(C)(C)CCC1 [9-cis-RA, 9-cis-retinoic acid]
Saturation by RetSat (mouse RetSat [5]): does not saturate

CC(C=CC1=C(C)C(=O)CCC1(C)C)=CC=CC(C)CC(=O)O (stereo not drawn) [all-trans-4-oxo-DRA]
Level in liver after gavage with all-trans-DROL [1]: significant levels
Formation in liver after gavage with all-trans-RA [3]: no evidence
